Here are results for one substance from US11492379B2 (priority 2020, dated 2022).

The subject of the assay is icSARS-CoV-2-GFP. Format: cell-based, SARS-CoV-2.

Consider trypsin, for which the syncytium formation result is “did not trigger syncytium formation” and the “virus titers relative to controls” value is “slightly lower virus titers than controls”.
